Experimental data taken from patent EP3290412A1, “HIV-1 NUCLEOCAPSID INHIBITORS” (Università degli Studi di Siena, priority 2016, dated 2018).
Where two headings read alike, the source gives them in different places.

Key:
[1] = test system: HIV-1 reference strain NL4-3; assay: BiCycle assay (MT-2 then TZM-bl cells); assay type: cell-based
Procedure: BiCycle Assay is cell based assay allowing the evaluation of the antiviral activity of HIV-1 inhibitors on the whole replication cycle of HIV-1. The assay consists in a first round of infection of the T-cell line MT-2 followed by infection of TZM-bl cells. MT-2 cells were seeded at a concentration of 50,000 cells/well in a 96-well plate and infected with the HIV-1 reference strain NL4-3 in presence of five-fold dilutions of the investigational compounds. After 72 hours, 50 µl of supernatant from each well, containing the virus produced in the first round of infection, were used to infect TZM-bl cells seeded in a 96-plate well at a concentration of 30,000 cells/well. Two days later, cells were lysed adding 40 µl of Glo Lysis Buffer (Promega) to each well for 5 minutes, then 40 µl of Brighy-Glo Luciferase Reagent (Promega) were added to each well for relative luminescence units (RLU) counting using Glo-Max Multi Detection System (Promega). RLU values from each well were elaborated using the GraphPad v5.0 software to calculate the IC50 of each compound.

[2] = test system: Peripheral blood mononuclear cells (PBMC); assay type: cell-based; details: human, 7 days
Procedure: Peripheral blood mononuclear cells (PBMC) obtained from healthy donors by separation over Ficoll-Hypaque (GEHealthear-Cat.# GEH17-1440-02) were suspended at 2x10^6 cells/mL in RPMI 1640 (Biowest-Cat.#L0501-500) supplemented with 10% of heat-inactivated sterile fetal bovine serum (Gibco-Cat.#10270-106), 2 mmol/l L-glutamine (Biowest-Cat.#X0550-100), 50 U/mL Penicillin-50 µg/mL Streptomycin (Biowest-Cat.#L0022-100), referred to as complete medium (CM). PBMC were supplemented with 5 µg/mL of phytohaemagglutinin (Sigma Aldr-Cat.#L1668) and cultured in 75 cm^2 flasks (Sarsted-Cat.#833.911.002) for 2 days at 37 °C in a humidified atmosphere with 5% CO2.
PBMC were then washed in CM, counted by trypan blue exclusion (Gibco-Cat. #15250-061), centrifuged and suspended in fresh CM supplemented with 20 IU/mL recombinant human IL-2 (Miltenyi Biotec-Cat.#130-097-748) and seeded in a 96-well-tissue culture plate (Sarsted-Ca#831.837) at the density of 5x10^5 cells/mL (or 1x10^5 cells in 200 µL final CM volume per well). Cells were left untreated (negative control) or treated with different concentrations of the compounds.
After 7 days of incubation cytotoxicity was determined using Promega's CellTiter 96(R) AQueous One Solution Cell Proliferation Assay (MTS assay) (Promega-Cat.#G3581) according to the manufacturer's instuctions. This is a colorimetric method for determining the number of viable cells in proliferation or cytotoxicity assays. The MTS tetrazolium compound is bioreduced by cells into a colored formazan product that is soluble in tissue culture medium. This conversion is presumably accomplished by NADPH or NADH produced by dehydrogenase enzymes in metabolically active cells.
Briefly, MTS solution was thawed at room temperature, or in a water bath at 37 °C and 40 µL of MTS solution was pipeted into each well of the 96-well assay plate containing the samples in 200 µL of culture medium and incubated at 37 °C, 5% CO2 for 4 hours. The optical density was read at 490 nm using a 96-well plate reader (Tecan Infinite F50) and TD50 (toxic dose 50%, dose killing 50% of the cells compared to untreated control) value was calculated by interpolation of the curve obtained by plotting dose against percent mortality and by using "Magellan data analysis software". CM alone plus MTS solution was used as a blank, and cell culture well without compound was used as a cellular control.

[3] = target: T1, full length (1-55) HIV-1 NCp7 (Human immunodeficiency virus type 1 group M subtype B, UniProt P12493); assay: Electromobility Shift Assay (EMSA), competition for ssDNA binding; details: NCp7 300 nM, M13mp18 ssDNA; positive = >25% inhibition at 100µM
T1 construct: recombinant full length (1-55) HIV-1 NCp7 proteins; made in house
Excerpt: The assay used a recombinant full length (1-55) HIV-1 NCp7 proteins based on the NL4-3 sequence (GenBank accession number AF324493). The protein was expressed and purified as described in [Carteau, S., Gorelick, R. J. & Bushman, F. D. Coupled integration of human immunodeficiency virus type 1 cDNA ends by purified integrase in vitro: stimulation by the viral nucleocapsid protein. Journal of virology 73, 6670-6679 (1999)].
Competition for single-stranded (ss) DNA binding was realized by mixing 1 µL of serial dilutions of NC inhibitors (diluted in DMSO) with 44 µL of NCp7 (300 nM) in a reaction buffer (20 mM Tris-HCl pH 7.4, 2 mM MgCl2, 100 mM NaCl, 1 mM DTT). 5 µL of a 10 ng/µL (4 nM) solution of M13mp18 ssDNA (BayouBiolabs) were then added and the tubes were incubated for 25 minutes at 37 °C. The reaction was terminated by chilling the tubes on ice followed by the addition of 5 µL of a loading buffer (30% glycerol, 0.01% xylene cyanol, 10 mM Tris-HCl pH 7.4). Samples were then resolved on 25 cm-long, 1% (w/v) agarose gels (SeaKem LE Agarose, Lonza) in 0.5x TBE. Gels were run in a Sub-Cell GT cuvette (BioRad) for 18 h at room temperature at 3 V/cm, stained with SybrGold (Molecular Probes) and scanned for fluorescence using a Typhoon 8600 (GE Healthcare). The experiments were performed in triplicate. Competition efficiency was realized by measuring the relative distance in pixels between the unbound ssDNA control, the NCp7-bound ssDNA control and the bound ssDNA for each points of the titration with the ImageQuant software. The IC50 was estimated as the NC inhibitors concentrations for which the bound ssDNA migrated at 50% of the distance separating the bound from the unbound ssDNA.

HeLa cells = assay: HeLa Proliferation assay (CellTiter Glo); assay type: cell-based; details: 72 hours
Procedure: HeLa cells (ATCC® CCL2™) in DMEM (Dulbecco Modified Eagle's Medium) without phenol red, Thermo, 11880, USA + 10% FBS + 1X PenStrep + 1X Gln or HUVEC cells (ATCC® CRL1730™) in EBM-2 (Endothelial Growth Basal Medium, Lonza, CC3156) + EGM-2 SingleQuotsTMSupplements and Growth Factors (Lonza, CC4176) + 1X Penicyllin-Streptomycin (PenStrep, ThermoFisher) + 1X Glutamine, are plated in a 384 well plate (Thermo, 4334-11, USA) to a density of 2000 cells per well and let recover for four hours at 37 °C, 5% CO2 in a humidified atmosphere. After the recovery, compounds are transferred to assay plates as per compound preparation method. Assay plates are then incubated at 37 °C, 5% CO2 in a humidified atmosphere for 72 hours. Cell viability is measured by the CellTiter Glo (Promega, G8080, USA) as per manufacturer instruction.

[4] = Human immunodeficiency virus 1, NL43, TZM-bl, read-out: BiCycle IC50 nM

Compound: Cc1nnc(C(=O)NC(C)(C)c2nc(C(=O)NCc3ccc(F)cc3)c(O)c(=O)n2C)o1 [Raltegravir™, Raltegravir, reference compound]
- EC50 ([1]; Human immunodeficiency virus 1, NL43, TZM-bl, read-out: Mean EC50 (nM)): 1 nM
- TD50 [2]: > 50 µM

Compound: C[C@@H](NC(=O)c1nc(-c2ccc(C(N)=O)cn2)nc(O)c1O)C1CCCCC1 [Compound 51, (R)-2-(5-carbamoylpyridin-2-yl)-N-(1-cyclohexylethyl)-5,6-dihydroxypyrimidine-4-carboxamide]
- IC50 [1, 4]: 10600 nM
- Proliferation assay PBMC TD50 [2]: 8 µM
- EMSA screening results [3]: Negative
- Proliferation assay HELA TD50 (HeLa cells): 26976 nM

Compound: C[C@@H](NC(=O)c1nc(-c2cccc(C(F)(F)F)n2)nc(O)c1O)C1CCCCC1 [Compound 44, (R)-N-(1-cyclohexylethyl)-5,6-dihydroxy-2-(6-(trifluoromethyl)pyridin-2-yl)pyrimidine-4-carboxamide]
- IC50 ([1]; Human immunodeficiency virus 1, NL43, MT-2 cells 72 hours then TZM-bl cells two days, NL4-3, read-out: BiCycle IC50): 936 nM
- Proliferation assay PBMC TD50 [2]: 21.55 µM
- EMSA screening results [3]: Positive (A compound showing >25% inhibition when tested at 100µM concentration is considered as "positive")
- Proliferation assay HELA TD50 (HeLa cells): >50000 nM

Compound: CCNCc1ccc(-c2nc(O)c(O)c(C(=O)N[C@H](C)C3CCCCC3)n2)nc1 [Compound 60, (R)-N-(1-cyclohexylethyl)-2-(5-((ethylamino)methyl)pyridin-2-yl)-5,6-dihydroxypyrimidine-4-carboxamide]
- IC50 [1, 4]: 694 nM
- Proliferation assay PBMC TD50 [2]: 1.6 µM
- EMSA screening results [3]: Negative
- Proliferation assay HELA TD50 (HeLa cells): 6428.6 nM

Compound: CC(NC(=O)c1nc(-c2ccccn2)nc(O)c1O)C1CCCC1 (centres unmarked) [Compound 65, N-(1-cyclopentylethyl)-5,6-dihydroxy-2-(pyridin-2-yl)pyrimidine-4-carboxamide]
- IC50 [1, 4]: 330 nM
- Proliferation assay PBMC TD50 [2]: 3.1 µM
- EMSA screening results [3]: Positive (A compound showing >25% inhibition when tested at 100µM concentration is considered as "positive")
- Proliferation assay HELA TD50 (HeLa cells): 883.9 nM

Compound: Cc1ccnc(-c2nc(O)c(O)c(C(=O)N[C@H](C)C3CCCCC3)n2)c1 [Compound 19, (R)-N-(1-cyclohexylethyl)-5,6-dihydroxy-2-(4-methylpyridin-2-yl)pyrimidine-4-carboxamide]
- IC50 [1, 4]: 218 nM
- Proliferation assay PBMC TD50 [2]: 3.075 µM
- EMSA screening results [3]: Positive (A compound showing >25% inhibition when tested at 100µM concentration is considered as "positive")
- Proliferation assay HELA TD50 (HeLa cells): 2735.7 nM

Compound: O=C(NCC1CCC1)c1nc(-c2cc3ccccc3cn2)nc(O)c1O [Compound 47, N-(cyclobutylmethyl)-5,6-dihydroxy-2-(isoquinolin-3-yl)pyrimidine-4-carboxamide]
- IC50 [1, 4]: 870 nM
- Proliferation assay PBMC TD50 [2]: 4.9 µM
- Proliferation assay HELA TD50 (HeLa cells): 3332.6 nM

Compound: C[C@H](NC(=O)c1nc(-c2nccc3[nH]ccc23)nc(O)c1O)C1CCCCC1 [Compound 86, (S)-N-(1-cyclohexylethyl)-5,6-dihydroxy-2-(1H-pyrrolo[3,2-c]pyridin-4-yl)pyrimidine-4-carboxamide]
- IC50 [1, 4]: 2280 nM
- EMSA screening results [3]: Positive (A compound showing >25% inhibition when tested at 100µM concentration is considered as "positive")
- Proliferation assay HELA TD50 (HeLa cells): 1414.7 nM

Compound: CC1(C)CCC(NC(=O)c2nc(-c3ccccn3)nc(O)c2O)CC1 [Compound 58, N-(4,4-dimethylcyclohexyl)-5,6-dihydroxy-2-(pyridin-2-yl)pyrimidine-4-carboxamide]
- IC50 [1, 4]: 268 nM
- Proliferation assay PBMC TD50 [2]: 1.6 µM
- EMSA screening results [3]: Positive (A compound showing >25% inhibition when tested at 100µM concentration is considered as "positive")
- Proliferation assay HELA TD50 (HeLa cells): 2045.2 nM

Compound: C[C@@H](NC(=O)c1nc(-c2cc(N)ccn2)nc(O)c1O)C1CCCCC1 [Compound 48, (R)-2-(4-aminopyridin-2-yl)-N-(1-cyclohexylethyl)-5,6-dihydroxypyrimidine-4-carboxamide]
- IC50 [1, 4]: 1340 nM
- Proliferation assay PBMC TD50 [2]: 2.6 µM
- Proliferation assay HELA TD50 (HeLa cells): 1549.6 nM

Compound: O=C(OC1CCCCC1)c1nc(-c2ccccn2)nc(O)c1O [Compound 13, cyclohexyl 5,6-dihydroxy-2-(pyridin-2-yl)pyrimidine-4-carboxylate]
- Proliferation assay PBMC TD50 [2]: 16.3 µM
- EMSA screening results [3]: Negative
- Proliferation assay HELA TD50 (HeLa cells): >50000 nM

Compound: C[C@@H](NC(=O)c1nc(-c2ccc(Cl)cn2)nc(O)c1O)C1CCCCC1 [Compound 49, (R)-2-(5-chloropyridin-2-yl)-N-(1-cyclohexylethyl)-5,6-dihydroxypyrimidine-4-carboxamide]
- IC50 [1, 4]: 352 nM
- Proliferation assay PBMC TD50 [2]: 3.4 µM
- Proliferation assay HELA TD50 (HeLa cells): 2099.9 nM

Compound: C[C@@H](NC(=O)c1nc(-c2ccc(CN3CCCC3)cn2)nc(O)c1O)C1CCCCC1 [Compound 93, (R)-N-(1-cyclohexylethyl)-5,6-dihydroxy-2-(5-(pyrrolidin-1-ylmethyl)pyridin-2-yl)pyrimidine-4-carboxamide]
- IC50 [1, 4]: 1360 nM
- Proliferation assay PBMC TD50 [2]: 1.87 µM
- EMSA screening results [3]: Negative

Compound: C[C@@H](NC(=O)c1nc(-c2ccc(CO)cn2)nc(O)c1O)C1CCCCC1 [Compound 55, (R)-N-(1-cyclohexylethyl)-5,6-dihydroxy-2-(5-(hydroxymethyl)pyridin-2-yl)pyrimidine-4-carboxamide]
- IC50 [1, 4]: 504 nM
- EMSA screening results [3]: Positive (A compound showing >25% inhibition when tested at 100µM concentration is considered as "positive")
- Proliferation assay HELA TD50 (HeLa cells): 1466.5 nM
